Test results as given in article PMC7265341, “Quantifying CDK inhibitor selectivity in live cells” (Nature Communications, 2020).
pIC50: −log10 of the molar value. Read-outs that look alike come from different tables or passages of the source.

Tests used:
CDK11B/Cyclin L2 = CDK11B/Cyclin L2 (Homo sapiens, UniProt P21127); assay: NanoBRET live-cell target engagement, CDK11B-NanoLuc/Cyclin L2 in HEK-293; type: binding; details: for inhibition at 10 µM: read-out: CDK11b/L2 Inhibition at 10µM (%); for pIC50: read-out: CDK11b/L2 IC50
CDK11B/Cyclin L2, sequence (P21127 1-782 isoform P21127-2): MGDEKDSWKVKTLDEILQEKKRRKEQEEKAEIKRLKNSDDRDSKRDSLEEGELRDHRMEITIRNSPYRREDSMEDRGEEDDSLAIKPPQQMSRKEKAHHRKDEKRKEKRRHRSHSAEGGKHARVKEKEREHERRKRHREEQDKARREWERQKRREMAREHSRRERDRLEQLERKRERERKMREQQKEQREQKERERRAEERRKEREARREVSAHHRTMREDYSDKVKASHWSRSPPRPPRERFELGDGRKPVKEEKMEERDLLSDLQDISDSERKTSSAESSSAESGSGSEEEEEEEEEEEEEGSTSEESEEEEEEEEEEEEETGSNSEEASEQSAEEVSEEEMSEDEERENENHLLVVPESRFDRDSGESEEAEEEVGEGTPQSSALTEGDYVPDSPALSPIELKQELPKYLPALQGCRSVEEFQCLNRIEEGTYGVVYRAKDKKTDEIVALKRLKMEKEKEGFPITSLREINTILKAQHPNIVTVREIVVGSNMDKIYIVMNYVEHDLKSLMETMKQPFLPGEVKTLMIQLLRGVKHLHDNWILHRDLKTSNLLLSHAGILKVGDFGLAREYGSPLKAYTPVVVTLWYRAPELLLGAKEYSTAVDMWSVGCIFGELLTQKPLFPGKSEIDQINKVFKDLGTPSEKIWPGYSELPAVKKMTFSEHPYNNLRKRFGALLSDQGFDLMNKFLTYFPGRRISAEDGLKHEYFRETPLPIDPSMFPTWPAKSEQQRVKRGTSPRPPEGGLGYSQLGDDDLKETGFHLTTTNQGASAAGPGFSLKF

CDK10/Cyclin L2 = CDK10/Cyclin L2 (Homo sapiens, UniProt Q15131); assay: NanoBRET live-cell target engagement, CDK10-NanoLuc/Cyclin L2 in HEK-293; details: for IC50: CDK10/L2 IC50 (nM); for inhibition at 10 µM: read-out: CDK10/L2 Inhibition at 10µM (%), 10µM
CDK10/Cyclin L2, sequence (Q15131 whole entry): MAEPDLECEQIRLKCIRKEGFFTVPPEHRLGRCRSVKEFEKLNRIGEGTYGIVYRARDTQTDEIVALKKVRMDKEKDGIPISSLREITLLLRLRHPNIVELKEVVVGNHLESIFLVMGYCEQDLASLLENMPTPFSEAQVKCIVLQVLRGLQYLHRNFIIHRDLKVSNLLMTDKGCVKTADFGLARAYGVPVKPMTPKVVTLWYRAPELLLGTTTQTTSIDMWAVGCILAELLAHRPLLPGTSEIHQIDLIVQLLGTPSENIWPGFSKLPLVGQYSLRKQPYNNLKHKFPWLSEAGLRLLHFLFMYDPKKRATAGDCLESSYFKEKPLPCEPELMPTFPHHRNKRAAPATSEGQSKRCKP

CDK2/Cyclin E1 = CDK2/Cyclin E1 (Homo sapiens, UniProt P24941); assay: NanoBRET live-cell target engagement, CDK2-NanoLuc/Cyclin E1 in HEK-293; type: binding; details: 10µM, read-out: CDK2/E1 Inhibition at 10µM (%)
CDK13/Cyclin K = CDK13/Cyclin K (Homo sapiens, UniProt Q14004); assay: NanoBRET live-cell target engagement, CDK13-NanoLuc/Cyclin K in HEK-293; type: binding; details: 10µM, read-out: CDK13/K Inhibition at 10µM (%)
CDK13/Cyclin K, sequence (O75909 whole entry): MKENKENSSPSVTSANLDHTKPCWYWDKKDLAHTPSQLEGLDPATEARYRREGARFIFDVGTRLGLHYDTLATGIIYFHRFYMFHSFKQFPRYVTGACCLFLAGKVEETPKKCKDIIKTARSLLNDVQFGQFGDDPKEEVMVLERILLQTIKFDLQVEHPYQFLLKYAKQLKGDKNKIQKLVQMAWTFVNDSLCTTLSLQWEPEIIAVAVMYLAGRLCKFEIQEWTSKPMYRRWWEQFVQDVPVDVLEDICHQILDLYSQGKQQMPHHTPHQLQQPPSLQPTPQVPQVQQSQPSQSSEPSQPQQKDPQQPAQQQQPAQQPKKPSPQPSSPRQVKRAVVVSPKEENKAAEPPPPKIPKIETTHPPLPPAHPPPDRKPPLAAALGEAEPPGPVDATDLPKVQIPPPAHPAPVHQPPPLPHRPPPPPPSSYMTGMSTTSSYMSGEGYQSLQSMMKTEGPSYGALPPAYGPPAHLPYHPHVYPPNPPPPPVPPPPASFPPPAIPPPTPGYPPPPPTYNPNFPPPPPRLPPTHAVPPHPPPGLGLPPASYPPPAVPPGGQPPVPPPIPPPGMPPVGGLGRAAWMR
CDK13/Cyclin K, sequence (Q14004 other isoform, or with tags, fused parts or gaps): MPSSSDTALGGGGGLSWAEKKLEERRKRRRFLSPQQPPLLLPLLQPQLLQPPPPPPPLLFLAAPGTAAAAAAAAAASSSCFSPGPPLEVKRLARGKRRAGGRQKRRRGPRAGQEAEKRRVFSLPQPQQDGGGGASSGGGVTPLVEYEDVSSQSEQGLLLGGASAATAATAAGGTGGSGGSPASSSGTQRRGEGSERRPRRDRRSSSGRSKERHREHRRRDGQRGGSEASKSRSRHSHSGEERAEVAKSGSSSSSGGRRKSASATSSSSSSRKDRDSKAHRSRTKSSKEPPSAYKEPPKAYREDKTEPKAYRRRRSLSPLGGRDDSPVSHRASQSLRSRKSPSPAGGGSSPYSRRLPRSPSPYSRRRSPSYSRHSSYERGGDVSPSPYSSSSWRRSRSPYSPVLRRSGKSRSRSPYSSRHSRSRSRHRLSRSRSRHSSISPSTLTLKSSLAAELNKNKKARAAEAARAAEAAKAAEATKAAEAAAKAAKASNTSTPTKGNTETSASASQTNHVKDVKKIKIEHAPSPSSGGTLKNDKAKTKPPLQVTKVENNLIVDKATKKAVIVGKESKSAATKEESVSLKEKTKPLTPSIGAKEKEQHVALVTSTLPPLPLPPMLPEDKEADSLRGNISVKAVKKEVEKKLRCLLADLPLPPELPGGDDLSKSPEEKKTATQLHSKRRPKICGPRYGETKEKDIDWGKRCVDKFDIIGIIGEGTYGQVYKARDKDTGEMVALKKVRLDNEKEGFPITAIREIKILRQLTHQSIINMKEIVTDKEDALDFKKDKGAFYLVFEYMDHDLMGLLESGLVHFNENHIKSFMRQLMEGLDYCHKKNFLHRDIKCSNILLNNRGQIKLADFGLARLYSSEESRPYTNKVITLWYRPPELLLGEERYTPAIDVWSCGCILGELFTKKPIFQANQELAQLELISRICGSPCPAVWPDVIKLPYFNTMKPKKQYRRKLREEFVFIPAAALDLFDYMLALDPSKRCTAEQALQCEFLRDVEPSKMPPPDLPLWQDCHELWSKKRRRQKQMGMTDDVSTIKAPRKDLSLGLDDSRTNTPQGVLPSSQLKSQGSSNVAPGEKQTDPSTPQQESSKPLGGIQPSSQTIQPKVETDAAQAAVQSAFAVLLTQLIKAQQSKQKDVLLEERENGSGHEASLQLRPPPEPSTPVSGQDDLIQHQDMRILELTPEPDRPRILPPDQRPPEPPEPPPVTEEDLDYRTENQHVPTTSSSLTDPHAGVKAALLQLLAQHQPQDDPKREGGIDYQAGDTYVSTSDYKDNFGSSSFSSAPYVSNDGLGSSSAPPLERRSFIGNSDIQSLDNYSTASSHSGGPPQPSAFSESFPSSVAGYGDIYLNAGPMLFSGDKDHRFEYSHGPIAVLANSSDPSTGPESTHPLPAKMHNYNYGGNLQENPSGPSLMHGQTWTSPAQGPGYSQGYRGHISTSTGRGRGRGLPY

CDK7 = CDK7 (Homo sapiens, UniProt P50613); assay: NanoBRET live-cell target engagement, NanoLuc-CDK7 in HEK-293; type: binding; details: for inhibition at 10 µM: read-out: CDK7 Inhibition at 10µM (%); for pIC50: read-out: CDK7 IC50
CDK7, sequence (P50613 whole entry): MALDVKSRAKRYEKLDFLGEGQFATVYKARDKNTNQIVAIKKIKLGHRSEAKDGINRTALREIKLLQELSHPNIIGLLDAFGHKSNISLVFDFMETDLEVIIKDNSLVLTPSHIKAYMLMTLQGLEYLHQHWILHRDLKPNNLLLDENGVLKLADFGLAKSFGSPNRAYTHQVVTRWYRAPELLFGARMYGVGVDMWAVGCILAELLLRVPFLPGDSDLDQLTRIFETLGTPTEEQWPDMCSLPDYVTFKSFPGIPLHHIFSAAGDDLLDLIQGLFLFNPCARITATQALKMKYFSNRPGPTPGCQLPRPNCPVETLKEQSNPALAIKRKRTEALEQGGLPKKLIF

CDK16/Cyclin Y = CDK16/Cyclin Y (Homo sapiens, UniProt Q00536); assay: NanoBRET live-cell target engagement, CDK16-NanoLuc/Cyclin Y in HEK-293; type: binding; details: 10µM, read-out: CDK16/Y Inhibition at 10µM (%)
CDK4/Cyclin D1 = CDK4/Cyclin D1 (Homo sapiens, UniProt P11802); assay: NanoBRET live-cell target engagement, NanoLuc-CDK4/Cyclin D1 in HEK-293; type: binding; details: for inhibition at 10 µM: read-out: CDK4/D1 Inhibition at 10µM (%)
CDK4/Cyclin D1, sequence (P11802 whole entry): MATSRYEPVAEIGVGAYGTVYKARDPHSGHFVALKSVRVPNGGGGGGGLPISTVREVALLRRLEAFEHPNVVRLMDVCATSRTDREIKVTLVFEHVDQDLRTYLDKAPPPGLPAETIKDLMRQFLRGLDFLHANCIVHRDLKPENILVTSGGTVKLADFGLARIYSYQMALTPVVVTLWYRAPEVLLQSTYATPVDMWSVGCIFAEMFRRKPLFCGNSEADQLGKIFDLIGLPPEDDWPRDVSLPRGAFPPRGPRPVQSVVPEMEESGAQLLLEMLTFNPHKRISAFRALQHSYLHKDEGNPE
CDK4/Cyclin D1, sequence (P24385 whole entry partner): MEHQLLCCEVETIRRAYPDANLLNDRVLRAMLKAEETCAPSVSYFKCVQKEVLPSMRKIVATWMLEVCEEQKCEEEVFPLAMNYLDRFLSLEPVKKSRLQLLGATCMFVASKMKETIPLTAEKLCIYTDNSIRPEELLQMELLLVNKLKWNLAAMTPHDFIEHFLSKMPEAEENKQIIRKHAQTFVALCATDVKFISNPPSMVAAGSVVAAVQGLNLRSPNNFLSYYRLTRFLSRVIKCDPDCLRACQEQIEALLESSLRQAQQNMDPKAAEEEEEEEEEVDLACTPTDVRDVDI

CDK17/Cyclin Y = CDK17/Cyclin Y (Homo sapiens, UniProt Q00537); assay: NanoBRET live-cell target engagement, CDK17-NanoLuc/Cyclin Y in HEK-293; type: binding; details: for inhibition at 10 µM: read-out: CDK17/Y Inhibition at 10µM (%); for pIC50: read-out: CDK17/Y IC50
CDK17/Cyclin Y, sequence (Q00537 whole entry): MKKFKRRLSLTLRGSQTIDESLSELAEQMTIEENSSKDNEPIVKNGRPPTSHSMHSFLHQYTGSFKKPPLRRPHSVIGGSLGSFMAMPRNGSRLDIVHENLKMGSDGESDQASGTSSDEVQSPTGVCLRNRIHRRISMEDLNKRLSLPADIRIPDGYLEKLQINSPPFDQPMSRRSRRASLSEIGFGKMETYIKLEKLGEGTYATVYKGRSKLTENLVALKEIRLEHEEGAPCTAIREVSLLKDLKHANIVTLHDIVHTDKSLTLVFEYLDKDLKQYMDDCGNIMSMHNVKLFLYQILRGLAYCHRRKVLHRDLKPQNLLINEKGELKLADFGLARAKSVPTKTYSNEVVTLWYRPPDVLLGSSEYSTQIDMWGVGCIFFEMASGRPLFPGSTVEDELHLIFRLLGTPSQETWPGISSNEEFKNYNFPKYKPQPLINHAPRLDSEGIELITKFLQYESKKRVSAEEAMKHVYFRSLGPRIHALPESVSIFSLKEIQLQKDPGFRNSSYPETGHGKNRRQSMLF
CDK17/Cyclin Y, sequence (Q8ND76 whole entry partner): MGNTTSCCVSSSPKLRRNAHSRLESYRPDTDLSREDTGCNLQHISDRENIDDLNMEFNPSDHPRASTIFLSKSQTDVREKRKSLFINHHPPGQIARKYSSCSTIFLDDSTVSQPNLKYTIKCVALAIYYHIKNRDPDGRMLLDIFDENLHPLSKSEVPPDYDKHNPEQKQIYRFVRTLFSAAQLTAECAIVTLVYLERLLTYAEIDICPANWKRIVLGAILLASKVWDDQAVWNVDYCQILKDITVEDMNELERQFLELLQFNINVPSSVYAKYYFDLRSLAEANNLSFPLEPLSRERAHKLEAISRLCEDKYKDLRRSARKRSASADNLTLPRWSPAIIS

CDK8/Cyclin C = CDK8/Cyclin C (Homo sapiens, UniProt P49336); assay: NanoBRET live-cell target engagement, NanoLuc-CDK8/Cyclin C in HEK-293; type: binding; details: 10µM, read-out: CDK8/C Inhibition at 10µM (%)
CDK3/Cyclin E1 = CDK3/Cyclin E1 (Homo sapiens, UniProt Q00526); assay: NanoBRET live-cell target engagement, CDK3-NanoLuc/Cyclin E1 in HEK-293; type: binding; details: for inhibition at 10 µM: read-out: CDK3/E1 Inhibition at 10µM (%); for pIC50: read-out: CDK3/E1 IC50
CDK6/Cyclin D1 = CDK6/Cyclin D1 (Homo sapiens, UniProt Q00534); assay: NanoBRET live-cell target engagement, NanoLuc-CDK6/Cyclin D1 in HEK-293; type: binding; details: 10µM, read-out: CDK6/D1 Inhibition at 10µM (%)

With `CN1C/C=C/CCOc2cccc(c2)-c2ccnc(n2)Nc2cccc(c2)C1` [SB1317] the inhibition at 10 µM (CDK11B/Cyclin L2; average of experiments) was 94.9%, the inhibition at 10 µM (CDK11B/Cyclin L2; independent experiment 1) was 95.5% and the inhibition at 10 µM (CDK11B/Cyclin L2; independent experiment 2) was 94.4%. The pIC50 (CDK11B/Cyclin L2; average (± SEM where n=3)) was 7.29, the pIC50 (CDK11B/Cyclin L2; independent experiment 1) was 7.31 and the pIC50 (CDK11B/Cyclin L2; independent experiment 2) was 7.27. For the same molecule, the IC50 (CDK10/Cyclin L2; average (± SEM where n=3)) was 520 nM, the IC50 (CDK10/Cyclin L2; independent experiment 1) was 530 nM and the IC50 (CDK10/Cyclin L2; independent experiment 2) was 520 nM. For the same molecule, the pIC50 (CDK10/Cyclin L2; IC50 for CDK/cyclin complexes, CDK10/L2, live HEK-293, 2 h, mean ± S.E.M. (n=3) or mean (n=2)) was 6.28, the inhibition at 10 µM (CDK10/Cyclin L2; average of experiments) was 88% and the inhibition at 10 µM (CDK10/Cyclin L2; independent experiment 1) was 81.7%. For the same molecule, the inhibition at 10 µM (CDK10/Cyclin L2; independent experiment 2) was 94.4%, the inhibition at 10 µM (CDK2/Cyclin E1; average of experiments) was 96.5% and the inhibition at 10 µM (CDK2/Cyclin E1; independent experiment 1) was 98%. It also gave an inhibition at 10 µM (CDK2/Cyclin E1; independent experiment 2) of 95%, an inhibition at 10 µM (CDK13/Cyclin K; average of experiments) of 63.7% and an inhibition at 10 µM (CDK13/Cyclin K; independent experiment 1) of 47.7%. It also gave an inhibition at 10 µM (CDK13/Cyclin K; independent experiment 2) of 79.6%, an inhibition at 10 µM (CDK7; average of experiments) of 96.4% and an inhibition at 10 µM (CDK7; independent experiment 1) of 97.5%. It also gave an inhibition at 10 µM (CDK7; independent experiment 2) of 95.3%, a pIC50 (CDK7; average (± SEM where n=3)) of 8.00 and a pIC50 (CDK7; independent experiment 1) of 7.96. The pIC50 (CDK7; independent experiment 2) was 8.06, the inhibition at 10 µM (CDK16/Cyclin Y; independent experiment 1) was 96.3% and the inhibition at 10 µM (CDK16/Cyclin Y; independent experiment 2) was 92.9%. For the same molecule, the inhibition at 10 µM (CDK4/Cyclin D1; average of experiments) was 99.8%, the inhibition at 10 µM (CDK4/Cyclin D1; independent experiment 1) was 100% and the inhibition at 10 µM (CDK4/Cyclin D1; independent experiment 2) was 99.2%. It also gave a pIC50 (CDK4/Cyclin D1; average (± SEM where n=3), read-out: CDK4/D1 IC50) of 6.85, a pIC50 (CDK4/Cyclin D1; independent experiment 1, read-out: CDK4/D1 IC50) of 6.85 and a pIC50 (CDK4/Cyclin D1; independent experiment 2, read-out: CDK4/D1 IC50) of 6.82. The pIC50 (CDK4/Cyclin D1; live HEK-293, 2 h, mean ± S.E.M. (n=3) or mean (n=2), read-out: IC50 for CDK/cyclin complexes, CDK4/D1) was 6.85, the inhibition at 10 µM (CDK17/Cyclin Y; average of experiments) was 94.8% and the inhibition at 10 µM (CDK17/Cyclin Y; independent experiment 1) was 96.6%. It also gave an inhibition at 10 µM (CDK17/Cyclin Y; independent experiment 2) of 93.1%, a pIC50 (CDK17/Cyclin Y; average (± SEM where n=3)) of 7.31 and a pIC50 (CDK17/Cyclin Y; independent experiment 1) of 7.30. The pIC50 (CDK17/Cyclin Y; independent experiment 2) was 7.33, the inhibition at 10 µM (CDK8/Cyclin C; average of experiments) was 72.3% and the inhibition at 10 µM (CDK8/Cyclin C; independent experiment 1) was 57.3%. It also gave an inhibition at 10 µM (CDK8/Cyclin C; independent experiment 2) of 87.3%, an inhibition at 10 µM (CDK3/Cyclin E1; average of experiments) of 97.1% and an inhibition at 10 µM (CDK3/Cyclin E1; independent experiment 1) of 98.4%. The inhibition at 10 µM (CDK3/Cyclin E1; independent experiment 2) was 95.9%, the pIC50 (CDK3/Cyclin E1; average (± SEM where n=3)) was 7.36 and the pIC50 (CDK3/Cyclin E1; independent experiment 1) was 7.35. For the same molecule, the pIC50 (CDK3/Cyclin E1; independent experiment 2) was 7.37, the inhibition at 10 µM (CDK6/Cyclin D1; average of experiments) was 98.3% and the inhibition at 10 µM (CDK6/Cyclin D1; independent experiment 1) was 97.3%.
